# PMC10818931, “In Vitro Evaluation of Drug–Drug Interaction Potential of Epetraborole, a Novel Bacterial Leucyl-tRNA Synthetase Inhibitor” (Pharmaceuticals, 2024)
# pIC50: −log10 of the molar value. Like-named read-outs stand apart in the source and are kept apart here.
# Assays:
# Type in all cases: in vitro ADME
# [1] = system: CYP1A2; assay: CYP inhibition (direct and metabolism-dependent) in human hepatic microsomes; conditions: for MDI IC50 Fold Change: metabolism-dependent inhibition; for pIC50: pH 7.4, EBO 0.03–100 μM, M3 1–1000 µM, read-out: as an Inhibitor IC50
# Description: (§1) The direct inhibitory potential of EBO on cytochrome P450 activities O-deethylase (CYP1A2), bupropion hydroxylase (CYP2B6), amodiaquine N-deethylase (CYP2C8), diclofenac 4′-hydroxylase (CYP2C9), S-mephenytoin 4′-hydroxylase (CYP2C19), bufuralol 1′-hydroxylase (CYP2D6), chlorzoxazone 6-hydroxylase (CYP2E1), testosterone 6β-hydroxylase (CYP3A), and midazolam 1′-hydroxylase (CYP3A) was assessed in vitro using human hepatic microsomes according to Covance Laboratory (Madison, WI, USA) SOP. A single substrate concentration was used, approximating the concentration of substrate that gives half the maximum reaction velocity (Km) for human hepatic microsomes for each cytochrome P450 activity. […] All sample and control incubations were performed in triplicate and were analyzed by LC-MS/MS. Incubation mixtures contained microsomal protein and substrate in a 0.1 M potassium phosphate buffer (pH 7.4) containing 1 mM EDTA (assay buffer). […] Incubations were terminated by the addition of 100 µL of an internal standard solution followed by vortex mixing. Protein was removed by centrifugation at 1500× g for 5 min at 4 °C, and supernatants were transferred to a separate plate and stored at 4 °C prior to LC-MS/MS analysis. The analyte for each activity assay was quantitated by comparison to a linear curve of an authentic standard prepared using human microsomal protein. […] Incubations were performed at substrate concentrations approximating the average Km values. […] For determination of control activities, NADPH was added after the addition of each substrate. Samples were then processed as previously described. […] Two sets of duplicate incubations were prepared (cofactor preincubation [50 µL] and control preincubation [50 µL]) with each concentration of M3. All incubations contained a final microsomal protein concentration of 0.1 mg/mL. In this study, M3 and microsomes were preincubated with cofactor for 20 min prior to initiation of reaction by addition of probe substrate. The corresponding control incubations were designed to provide a preincubation without cofactor while incorporating the 20 min preincubation of M3 with microsomes to ensure consistent equilibration of M3 in both control and cofactor preincubations. The control preincubations were therefore performed for 20 min with M3, microsomes, and probe substrate, and the reaction was initiated by the addition of a cofactor solution. […] Incubations without cofactor (at the highest concentration of M3) were performed to determine any cofactor-independent substrate metabolism formation. Probe substrate concentrations were determined by LC/MS/MS methods.
# [2] = target: T1, CYP2C9 (Homo sapiens, UniProt P11712); assay: as above; conditions: for MDI IC50 Fold Change: metabolism-dependent inhibition; for pIC50: read-out: as an Inhibitor IC50
# T1 construct: tissue CellzDirect; XenoTech LLC; host or cells: pooled human liver microsomes
# Description: as §1
# [3] = target: T2, CYP2C8 (Homo sapiens, UniProt P10632); assay: as above; conditions: for MDI IC50 Fold Change: metabolism-dependent inhibition; for pIC50: read-out: as an Inhibitor IC50
# T2 construct: tissue CellzDirect; XenoTech LLC; host or cells: pooled human liver microsomes
# T2 sequence (P10632 1-490): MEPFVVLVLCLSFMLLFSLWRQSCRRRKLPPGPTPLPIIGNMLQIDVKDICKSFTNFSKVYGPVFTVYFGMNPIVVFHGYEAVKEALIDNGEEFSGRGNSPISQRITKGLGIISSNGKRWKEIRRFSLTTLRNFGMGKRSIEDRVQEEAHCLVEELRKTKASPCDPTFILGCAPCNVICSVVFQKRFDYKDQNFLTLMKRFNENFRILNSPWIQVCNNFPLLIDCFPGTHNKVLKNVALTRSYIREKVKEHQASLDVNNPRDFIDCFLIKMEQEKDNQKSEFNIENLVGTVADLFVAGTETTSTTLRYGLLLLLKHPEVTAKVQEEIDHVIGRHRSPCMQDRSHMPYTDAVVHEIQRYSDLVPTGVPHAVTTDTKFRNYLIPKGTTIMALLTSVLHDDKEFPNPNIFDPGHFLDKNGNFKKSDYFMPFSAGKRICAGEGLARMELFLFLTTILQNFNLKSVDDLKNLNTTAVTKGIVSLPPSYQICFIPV
# Description: as §1
# [4] = system: CYP3A4/5; assay: as above; conditions: for MDI IC50 Fold Change: metabolism-dependent inhibition; for pIC50: read-out: as an Inhibitor IC50
# Description: as §1
# [5] = target: T3, CYP2D6 (Homo sapiens, UniProt P10635); assay: as above; conditions: for MDI IC50 Fold Change: metabolism-dependent inhibition; for pIC50: read-out: as an Inhibitor IC50
# T3 construct: Characterized, pooled, human hepatic microsomes from 15 individuals; tissue CellzDirect (Durham, NC, USA) or XenoTech LLC (Lenexa, KS, USA); host or cells: pooled human liver microsomes (15 donors)
# Description: as §1
# [6] = system: CYP3A4; assay: as above; conditions: for MDI IC50 Fold Change / pIC50: CYP3A4 (Testosterone); for MDI IC50 Fold Change: metabolism-dependent inhibition; for pIC50: human, read-out: as an Inhibitor IC50
# Description: as §1
# [7] = target: P-gp (Homo sapiens, UniProt P08183); assay: Substrate potential for P-gp, bidirectional permeability in MDR1-MDCK; conditions: for Concentration in the receiver compartment: 5 µM, MDR1-MDCK and MDCK cells, A to B and B to A, Papp and efflux ratio could not be calculated; for as a Substrate: P-gp
# Description: In vitro evaluation of the substrate potential of EBO (5 µM) and M3 (5 µM) for P-gp was conducted in single transporter-transfected and non-transfected Madin–Darby canine kidney (MDCK) cells monolayers according to Absorption Systems (Exton, PA, USA) standard operating procedures (SOP). The integrity of each cell monolayer was evaluated by lucifer yellow presence.
# P-gp, sequence (P08183 whole entry): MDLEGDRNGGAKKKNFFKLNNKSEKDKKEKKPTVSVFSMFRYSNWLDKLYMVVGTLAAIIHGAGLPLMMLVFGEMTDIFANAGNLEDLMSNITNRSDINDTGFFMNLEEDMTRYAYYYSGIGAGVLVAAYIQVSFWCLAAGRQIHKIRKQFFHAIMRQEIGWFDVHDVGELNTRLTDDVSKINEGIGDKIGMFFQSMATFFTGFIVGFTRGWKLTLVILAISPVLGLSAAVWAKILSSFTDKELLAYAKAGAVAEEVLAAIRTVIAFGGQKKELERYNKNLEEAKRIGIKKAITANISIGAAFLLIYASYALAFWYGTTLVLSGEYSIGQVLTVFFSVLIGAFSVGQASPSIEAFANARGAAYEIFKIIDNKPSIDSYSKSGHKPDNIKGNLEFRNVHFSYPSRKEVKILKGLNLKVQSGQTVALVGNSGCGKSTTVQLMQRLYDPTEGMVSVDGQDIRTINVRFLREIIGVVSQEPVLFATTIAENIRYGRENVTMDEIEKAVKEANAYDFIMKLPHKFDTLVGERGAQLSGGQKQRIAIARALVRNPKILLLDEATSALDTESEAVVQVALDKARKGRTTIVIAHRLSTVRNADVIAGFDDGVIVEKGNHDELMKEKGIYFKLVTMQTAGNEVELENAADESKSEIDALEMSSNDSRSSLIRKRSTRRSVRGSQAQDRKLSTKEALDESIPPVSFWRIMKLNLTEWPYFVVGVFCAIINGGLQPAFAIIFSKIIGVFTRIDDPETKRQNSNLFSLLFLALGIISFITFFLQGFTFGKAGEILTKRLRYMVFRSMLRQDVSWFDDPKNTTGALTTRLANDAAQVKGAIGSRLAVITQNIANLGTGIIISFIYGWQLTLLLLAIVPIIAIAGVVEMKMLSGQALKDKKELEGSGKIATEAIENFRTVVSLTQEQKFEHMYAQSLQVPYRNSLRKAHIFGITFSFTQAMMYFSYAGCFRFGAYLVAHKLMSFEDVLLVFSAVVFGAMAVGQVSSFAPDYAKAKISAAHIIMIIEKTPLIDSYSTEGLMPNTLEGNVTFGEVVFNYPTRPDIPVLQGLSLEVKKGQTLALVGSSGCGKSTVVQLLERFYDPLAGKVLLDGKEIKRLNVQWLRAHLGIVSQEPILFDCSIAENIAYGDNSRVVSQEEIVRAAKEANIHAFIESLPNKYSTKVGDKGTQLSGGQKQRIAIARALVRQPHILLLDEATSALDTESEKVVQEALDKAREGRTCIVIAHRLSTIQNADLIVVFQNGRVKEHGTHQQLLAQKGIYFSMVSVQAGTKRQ
# T1 sequence (P11712 whole entry): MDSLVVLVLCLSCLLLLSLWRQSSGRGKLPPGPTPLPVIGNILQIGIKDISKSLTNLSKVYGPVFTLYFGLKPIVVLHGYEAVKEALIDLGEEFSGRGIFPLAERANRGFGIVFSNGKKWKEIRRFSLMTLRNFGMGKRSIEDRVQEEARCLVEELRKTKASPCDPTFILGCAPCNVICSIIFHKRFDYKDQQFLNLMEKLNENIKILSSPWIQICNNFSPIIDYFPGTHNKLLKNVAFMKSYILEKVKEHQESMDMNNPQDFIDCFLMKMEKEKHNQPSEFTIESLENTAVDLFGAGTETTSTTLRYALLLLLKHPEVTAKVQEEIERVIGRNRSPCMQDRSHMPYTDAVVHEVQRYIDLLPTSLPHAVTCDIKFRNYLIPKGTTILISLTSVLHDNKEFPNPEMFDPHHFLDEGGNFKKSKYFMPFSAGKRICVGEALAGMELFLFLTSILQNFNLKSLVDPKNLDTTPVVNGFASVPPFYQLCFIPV
# T3 sequence (P10635 whole entry): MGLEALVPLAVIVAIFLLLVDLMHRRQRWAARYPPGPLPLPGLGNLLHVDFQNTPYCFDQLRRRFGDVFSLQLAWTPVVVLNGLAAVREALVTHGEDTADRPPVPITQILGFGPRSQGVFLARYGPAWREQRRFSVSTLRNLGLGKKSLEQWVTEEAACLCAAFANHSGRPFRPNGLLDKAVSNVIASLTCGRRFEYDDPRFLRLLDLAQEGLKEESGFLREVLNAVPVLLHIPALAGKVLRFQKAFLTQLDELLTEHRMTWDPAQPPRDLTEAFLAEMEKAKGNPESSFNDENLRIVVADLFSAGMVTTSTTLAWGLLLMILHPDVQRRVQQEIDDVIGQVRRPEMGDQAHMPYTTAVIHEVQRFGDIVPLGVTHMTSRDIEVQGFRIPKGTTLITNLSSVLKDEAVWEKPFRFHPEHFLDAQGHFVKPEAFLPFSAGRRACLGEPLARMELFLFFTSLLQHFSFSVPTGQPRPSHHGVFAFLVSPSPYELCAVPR
SMILES,MDI IC50 Fold Change ([1]; CYP1A2),MDI IC50 Fold Change [2],pIC50 [2],MDI IC50 Fold Change [3],pIC50 [3],MDI IC50 Fold Change ([4]; CYP3A4/5 (Midazolam)),MDI IC50 Fold Change [5],pIC50 [5],MDI IC50 Fold Change [6],Concentration in the receiver compartment [7],as a Substrate [7],other results
"NC[C@H]1OB(O)c2c(OCCCO)cccc21 [EBO, Epetraborole]",No,No,< 4.00,No,< 4.00,No,No,< 4.00,No,below the lower limit of quantification,No,"inhibition at 100 µM ([1]; human, human hepatic microsomes, pH 7.4, highest concentration tested (100 µM), read-out: Decrease of CYP1A2 activity (inhibition)): ~30%; pIC50 ([1]; human, human liver microsomes, CYP1A2): < 4.00; Percentage of CYP1A2 activity remaining ([1]; preincubation with EBO in the absence of NADPH): 72.4%; Percentage of CYP1A2 activity remaining ([1]; preincubation with EBO in the presence of NADPH): 81.7%; pIC50 ([4]; human, human hepatic (liver) microsomes, pH 7.4, probe midazolam (1′-hydroxylation), CYP3A4/5 (Midazolam)): < 4.00; pIC50 ([6]; human hepatic (liver) microsomes, pH 7.4, probe testosterone (6β-hydroxylation)): < 4.00"
NC[C@H]1OB(O)c2c(OCCC(=O)O)cccc21 [M3],No,No,< 3.00,No,< 3.00,No,No,< 3.00,No,below the lower limit of quantification,No,"Direct or time-dependent inhibitory activity (in words) ([1]; CYP1A2): No direct or time-dependent inhibitory activity; pIC50 ([1]; human, microsomes, CYP1A2): < 3.00; Direct or time-dependent inhibitory activity (in words) [2]: No direct or time-dependent inhibitory activity; Direct or time-dependent inhibitory activity (in words) [3]: No direct or time-dependent inhibitory activity; MDI IC50 Fold Change ([4]; CYP3A4/5 (Atorvastatin)): No; pIC50 ([4]; CYP3A4/5 (Atorvastatin)): < 3.00; pIC50 ([4]; human, microsomes, pH 7.4, CYP3A4/5 (Midazolam)): < 3.00; Direct or time-dependent inhibitory activity (in words) [5]: No direct or time-dependent inhibitory activity; Direct or time-dependent inhibitory activity (in words) ([6]; CYP3A4): No direct or time-dependent inhibitory activity; pIC50 ([6]; microsomes, pH 7.4): < 3.00"
